Results reported in ChEMBL document CHEMBL5303573, “Mapping human microbiome drug metabolism by gut bacteria and their genes” (Nature, 2019).

Key:
[1] = The drug is tested on Eubacterium ventriosum strain: ATCC27560 for biotransformation. The drug concentrations were measured before and after a 12-h incubation by liquid-chromatography-coupled mass spectrometry (LC–MS); type: ADME; set-up: dose 2 uM, timepoint 0 vs 12 hours; conditions: 2 µM
[2] = bacteroides fragilis, 12 h, 2 µM
Description: The drug is tested on Bacteroides fragilis strain: NCTC 9343 for biotransformation. The drug concentrations were measured before and after a 12-h incubation by liquid-chromatography-coupled mass spectrometry (LC–MS)

[3] = The drug is tested on Clostridium symbiosum strain: ATCC14940 for biotransformation. The drug concentrations were measured before and after a 12-h incubation by liquid-chromatography-coupled mass spectrometry (LC–MS); conditions: 2 µM
[4] = The drug is tested on Edwardsiella tarda strain: ATCC23685 for biotransformation. The drug concentrations were measured before and after a 12-h incubation by liquid-chromatography-coupled mass spectrometry (LC–MS); conditions: 2 µM
[5] = bacteroides fragilis, 12 h, 2 µM; remark: listed apart in the source
Description: The drug is tested on Bacteroides fragilis strain: DS-208 for biotransformation. The drug concentrations were measured before and after a 12-h incubation by liquid-chromatography-coupled mass spectrometry (LC–MS)

[6] = The drug is tested on Dorea formicigenerans strain: ATCC27755 for biotransformation. The drug concentrations were measured before and after a 12-h incubation by liquid-chromatography-coupled mass spectrometry (LC–MS); conditions: 2 µM
[7] = bifidobacterium adolescentis, 12 h, 2 µM
Description: The drug is tested on Bifidobacterium adolescentis strain: ATCC 15703 for biotransformation. The drug concentrations were measured before and after a 12-h incubation by liquid-chromatography-coupled mass spectrometry (LC–MS)

[8] = The drug is tested on Bacteroides caccae strain: ATCC43185 for biotransformation. The drug concentrations were measured before and after a 12-h incubation by liquid-chromatography-coupled mass spectrometry (LC–MS); conditions: 2 µM
[9] = The drug is tested on Anaerococcus hydrogenalis strain: DSM7454 for biotransformation. The drug concentrations were measured before and after a 12-h incubation by liquid-chromatography-coupled mass spectrometry (LC–MS); conditions: 2 µM
[10] = The drug is tested on Subdoligranulum variabile strain: DSM15176 for biotransformation. The drug concentrations were measured before and after a 12-h incubation by liquid-chromatography-coupled mass spectrometry (LC–MS); conditions: 2 µM
[11] = anaerostipes sp., 12 h, 2 µM
Description: The drug is tested on Anaerostipes sp. strain: fecal isolate for biotransformation. The drug concentrations were measured before and after a 12-h incubation by liquid-chromatography-coupled mass spectrometry (LC–MS)

[12] = The drug is tested on Bacteroides cellulosilyticus strain: DSM14838 for biotransformation. The drug concentrations were measured before and after a 12-h incubation by liquid-chromatography-coupled mass spectrometry (LC–MS); conditions: 2 µM
[13] = The drug is tested on Bifidobacterium longum subsp. Infantis strain: CCUG52486 for biotransformation. The drug concentrations were measured before and after a 12-h incubation by liquid-chromatography-coupled mass spectrometry (LC–MS); conditions: 2 µM
[14] = parabacteroides distasonis, 12 h, 2 µM
Description: The drug is tested on Parabacteroides distasonis strain: ATCC8503 for biotransformation. The drug concentrations were measured before and after a 12-h incubation by liquid-chromatography-coupled mass spectrometry (LC–MS)

[15] = bacteroides fragilis, 12 h, 2 µM; remark: listed apart in the source
Description: The drug is tested on Bacteroides fragilis strain: 3397 (T10) for biotransformation. The drug concentrations were measured before and after a 12-h incubation by liquid-chromatography-coupled mass spectrometry (LC–MS)

[16] = The drug is tested on Collinsella aerofaciens strain: ATCC25986 for biotransformation. The drug concentrations were measured before and after a 12-h incubation by liquid-chromatography-coupled mass spectrometry (LC–MS); conditions: 2 µM
[17] = The drug is tested on Ruminococcus gnavus strain: ATCC29149 for biotransformation. The drug concentrations were measured before and after a 12-h incubation by liquid-chromatography-coupled mass spectrometry (LC–MS); conditions: mediterraneibacter gnavus, 2 µM
[18] = The drug is tested on Ruminococcus lactaris strain: ATCC29176 for biotransformation. The drug concentrations were measured before and after a 12-h incubation by liquid-chromatography-coupled mass spectrometry (LC–MS); conditions: 2 µM
[19] = The drug is tested on Escherichia coli strain: BW25113 for biotransformation. The drug concentrations were measured before and after a 12-h incubation by liquid-chromatography-coupled mass spectrometry (LC–MS); conditions: 2 µM
[20] = The drug is tested on Clostridium sp. strain: fecal isolate for biotransformation. The drug concentrations were measured before and after a 12-h incubation by liquid-chromatography-coupled mass spectrometry (LC–MS); conditions: 2 µM

## CCCCCCOC(=O)/N=C(/N)c1ccc(NCc2nc3cc(C(=O)N(CCC(=O)OCC)c4ccccn4)ccc3n2C)cc1.CS(=O)(=O)O [DABIGATRAN ETEXILATE MESYLATE]
[1]
  Bacterial Biotransformation: Compound NOT metabolized
[2]
  Bacterial Biotransformation: Compound NOT metabolized
[3]
  Bacterial Biotransformation: Compound NOT metabolized
[4]
  Bacterial Biotransformation: Compound NOT metabolized
[5]
  Bacterial Biotransformation: Compound NOT metabolized
[6]
  Bacterial Biotransformation: Compound NOT metabolized
[7]
  Bacterial Biotransformation: Compound NOT metabolized
[8]
  Bacterial Biotransformation: Compound NOT metabolized
[9]
  Bacterial Biotransformation: Compound NOT metabolized
[10]
  Bacterial Biotransformation: Compound NOT metabolized
[11]
  Bacterial Biotransformation: Compound NOT metabolized
[12]
  Bacterial Biotransformation: Compound NOT metabolized
[13]
  Bacterial Biotransformation: Compound NOT metabolized
[14]
  Bacterial Biotransformation: Compound NOT metabolized
[15]
  Bacterial Biotransformation: Compound NOT metabolized
[16]
  Bacterial Biotransformation: Compound NOT metabolized
[17]
  Bacterial Biotransformation: Compound NOT metabolized
[18]
  Bacterial Biotransformation: Compound NOT metabolized
[19]
  Bacterial Biotransformation: Compound NOT metabolized

## OCCOCCN1CCN(C2=Nc3ccccc3Sc3ccccc32)CC1 [QUETIAPINE]
[1]
  Bacterial Biotransformation: Compound NOT metabolized
[2]
  Bacterial Biotransformation: Compound NOT metabolized
[3]
  Bacterial Biotransformation: Compound NOT metabolized
[4]
  Bacterial Biotransformation: Compound NOT metabolized
[5]
  Bacterial Biotransformation: Compound NOT metabolized
[6]
  Bacterial Biotransformation: Compound NOT metabolized
[7]
  Bacterial Biotransformation: Compound NOT metabolized
[8]
  Bacterial Biotransformation: Compound NOT metabolized
[9]
  Bacterial Biotransformation: Compound NOT metabolized
[10]
  Bacterial Biotransformation: Compound NOT metabolized
[11]
  Bacterial Biotransformation: Compound NOT metabolized
[12]
  Bacterial Biotransformation: Compound NOT metabolized
[13]
  Bacterial Biotransformation: Compound NOT metabolized
[15]
  Bacterial Biotransformation: Compound NOT metabolized
[16]
  Bacterial Biotransformation: Compound NOT metabolized
[17]
  Bacterial Biotransformation: Compound NOT metabolized
[18]
  Bacterial Biotransformation: Compound NOT metabolized
[19]
  Bacterial Biotransformation: Compound NOT metabolized

## O=c1[nH]c2ccccc2n1C1CCN(CCCC(c2ccc(F)cc2)c2ccc(F)cc2)CC1 [PIMOZIDE]
[1]
  Bacterial Biotransformation: Compound NOT metabolized
[2]
  Bacterial Biotransformation: Compound NOT metabolized
[20]
  Bacterial Biotransformation: Compound NOT metabolized
[3]
  Bacterial Biotransformation: Compound NOT metabolized
[4]
  Bacterial Biotransformation: Compound NOT metabolized
[5]
  Bacterial Biotransformation: Compound NOT metabolized
[6]
  Bacterial Biotransformation: Compound NOT metabolized
[7]
  Bacterial Biotransformation: Compound NOT metabolized
[8]
  Bacterial Biotransformation: Compound NOT metabolized
[9]
  Bacterial Biotransformation: Compound NOT metabolized
[10]
  Bacterial Biotransformation: Compound NOT metabolized
[11]
  Bacterial Biotransformation: Compound NOT metabolized
[12]
  Bacterial Biotransformation: Compound NOT metabolized
[13]
  Bacterial Biotransformation: Compound NOT metabolized
[14]
  Bacterial Biotransformation: Compound metabolized
[15]
  Bacterial Biotransformation: Compound NOT metabolized
[16]
  Bacterial Biotransformation: Compound NOT metabolized
[17]
  Bacterial Biotransformation: Compound NOT metabolized
[18]
  Bacterial Biotransformation: Compound NOT metabolized

## CCN(CC)CCCC(C)Nc1c2ccc(Cl)cc2nc2ccc(OC)cc12 (configuration not stated) [QUINACRINE]
[1]
  Bacterial Biotransformation: Compound NOT metabolized
[2]
  Bacterial Biotransformation: Compound NOT metabolized
[5]
  Bacterial Biotransformation: Compound NOT metabolized
[6]
  Bacterial Biotransformation: Compound NOT metabolized
[7]
  Bacterial Biotransformation: Compound NOT metabolized
[10]
  Bacterial Biotransformation: Compound NOT metabolized
[11]
  Bacterial Biotransformation: Compound NOT metabolized
[12]
  Bacterial Biotransformation: Compound NOT metabolized
[13]
  Bacterial Biotransformation: Compound NOT metabolized
[14]
  Bacterial Biotransformation: Compound NOT metabolized
[15]
  Bacterial Biotransformation: Compound NOT metabolized
[16]
  Bacterial Biotransformation: Compound NOT metabolized
[19]
  Bacterial Biotransformation: Compound NOT metabolized

## O=C1N=C([O-])NC1(c1ccccc1)c1ccccc1.[Na+] [PHENYTOIN SODIUM]
[2]
  Bacterial Biotransformation: Compound metabolized
[3]
  Bacterial Biotransformation: Compound metabolized
[5]
  Bacterial Biotransformation: Compound NOT metabolized
[6]
  Bacterial Biotransformation: Compound NOT metabolized
[7]
  Bacterial Biotransformation: Compound NOT metabolized
[9]
  Bacterial Biotransformation: Compound NOT metabolized
[10]
  Bacterial Biotransformation: Compound NOT metabolized
[11]
  Bacterial Biotransformation: Compound NOT metabolized
[12]
  Bacterial Biotransformation: Compound metabolized
[14]
  Bacterial Biotransformation: Compound metabolized
[16]
  Bacterial Biotransformation: Compound metabolized
[17]
  Bacterial Biotransformation: Compound NOT metabolized
[19]
  Bacterial Biotransformation: Compound NOT metabolized
